Source: patent publication US20140154251A1, “ANTI C-MET ANTIBODY AND USES THEREOF” (Samsung Electronics Co., Ltd., priority 2011, published 2014)

Columns and labels:
[1] = system: MHCC97H (human liver cancer cell line); test: MHCC97H liver cancer xenograft model; assay type: in vivo, BALB/C nude mouse; settings: 30 mg/kg p.o., q.d. x 4 weeks
Procedure: The antitumor activity of huAbF46-H4-A1(IgG2 Fc) was evaluated in a BALB/C nude mouse MHCC97H (human liver cancer cell line) xenograft model (referring to Example 16.2). Approximately 3 million MHCC97H cells in 100 μL of serum-free media were injected via s.c. to each of the 140 mice under anesthesia by 1-2% isoflurane. Ten days after subcutaneous inoculation with MHCC97H tumor cells, dosing commenced in the following treatment groups: 0 (PBS vehicle), 0.2, 1, 5 or 10 mg/kg huAbF46-H4-A1 (IgG2 Fc) i.v., q.w.×4 weeks; 30 mg/kg sorafenib p.o., q.d.×4 weeks (positive control). Each group consisted of 15 mice. Tumor volumes and body weights were measured two to three times a week for total study period about 4 weeks. The tumor volume (V) was calculated as follows: V (mm^3)={long axis length (mm)×(short axis length (mm))^2}/2.

Akt = Akt phosphorylation in Caki-1 cells (phospho-AKT1 Ser473 ELISA); assay type: cell-based; settings: 5 ug/ml, 30 minutes (FIG. 8B)
Procedure: (§1) To compare agonism of the 4 types of antibodies having improved affinities, as prepared in Example 5, Caki-1 cells (Korean Cell Line Bank) were used to confirm the degree of Akt phosphorylation. Mouse IgG was used as a negative control, and antibody 5D5 (a known agonist) was used as a positive control.
(§2) 2×10^5 cells/ml of Caki-1 cells were introduced to a 96-well plate, and after 24 hours, each of 5 ug/ml of the antibodies was treated in serum free medium for 30 minutes. Lysis of the cells treated with the antibodies was performed and the degree of Akt phosphorylation was measured using a PathScan phospho-AKT1 (Ser473) chemiluminescent Sandwich ELISA kit (Cell Signaling, cat. no #7134S).
as §1, with “3” for “4”, “11,” for “5,”, “and a 5D5” for “and”, “antibody” for “antibody 5D5”
as §2, with “with” for “with the”, “and a” for “and the”, “phosphorylation inhibition” for “phosphorylation”, “(Ser473) a” for “(Ser473)”

For `CNC(=O)c1cc(Oc2ccc(NC(=O)Nc3ccc(Cl)c(C(F)(F)F)c3)cc2)ccn1` [sorafenib, reference compound], which “tumor growth (in words)” value [1] is on record?
Its value is “significant inhibition”.

B1: L3-11Y: heavy chain of huAbF46-H4-A1 (IgG2 Fc) with light chain SEQ ID NO: 73 (serine 27e replaced with tryptophan) (antibody)
heavy: EVQLVESGGGLVQPGGSLRLSCAASGFTFTDYYMSWVRQAPGKGLEWLGFIRNKANGYTTEYSASVKGRFTISRDNSKNTLYLQMNSLRAEDTAVYYCARDNWFAYWGQGTLVTVSSASTKGPSVFPLAPCSRSTSESTAALGCLVKDYFPEPVTVSWNSGALTSGVHTFPAVLQSSGLYSLSSVVTVPSSNFGTQTYTCNVDHKPSNTKVDKTVERKCCVECPPCPAPPVAGPSVFLFPPKPKDTLMISRTPEVTCVVVDVSHEDPEVQFNWYVDGVEVHNAKTKPREEQFNSTFRVVSVLTVVHQDWLNGKEYKCKVSNKGLPAPIEKTISKTKGQPREPQVYTLPPSREEMTKNQVSLTCLVKGFYPSDIAVEWESNGQPENNYKTTPPMLDSDGSFFLYSKLTVDKSRWQQGNVFSCSVMHEALHNHYTQKSLSLSPGK
light: DIQMTQSPSSLSASVGDRVTITCKSSQSLLAWGNQNNYLAWYQQKPGKAPKMLIIWASTRVSGVPSRFSGSGSGTDFTLTISSLQPEDFATYYCQQSYSRPYTFGQGTKVEIKRTVAAPSVFIFPPSDEQLKSGTASVVCLLNNFYPREAKVQWKVDNALQSGNSQESVTEQDSKDSTYSLSSTLTLSKADYEKHKVYACEVTHQGLSSPVTKSFNRGEC
With B1 as the molecule, how does the “activity of Akt phosphorylation inhibition compared to huAbF46-H4-A1(IgG2 Fc)” value (Akt) read?
Its value is “equal or higher activity of Akt phosphorylation inhibition”.
